Assay results reported in ChEMBL document CHEMBL4364313, “Synthesis of new 5,6,7,8-tetrahydropyrido[1,2-c]pyrimidine derivatives with rigidized tryptamine moiety as potential SSRI and 5-HT1A receptor ligands” (Eur J Med Chem, 2019).
Values belong to the compound of their own block, whether it stands above or below them. The source made the active and inactive calls. The calls are words filed in the database; no cut-off is given here.

Tests used:
[1] = biological target: 5-hydroxytryptamine receptor 2A (Homo sapiens, UniProt P28223); experiment: Displacement of [3H]ketanserin from human 5HT2A receptor expressed in HEK293 cells incubated for 1.5 hrs by Cheng-Prusoff analysis based microbeta scintillation counting method; format: cell-based
Chain of 5-hydroxytryptamine receptor 2A (P28223 whole entry): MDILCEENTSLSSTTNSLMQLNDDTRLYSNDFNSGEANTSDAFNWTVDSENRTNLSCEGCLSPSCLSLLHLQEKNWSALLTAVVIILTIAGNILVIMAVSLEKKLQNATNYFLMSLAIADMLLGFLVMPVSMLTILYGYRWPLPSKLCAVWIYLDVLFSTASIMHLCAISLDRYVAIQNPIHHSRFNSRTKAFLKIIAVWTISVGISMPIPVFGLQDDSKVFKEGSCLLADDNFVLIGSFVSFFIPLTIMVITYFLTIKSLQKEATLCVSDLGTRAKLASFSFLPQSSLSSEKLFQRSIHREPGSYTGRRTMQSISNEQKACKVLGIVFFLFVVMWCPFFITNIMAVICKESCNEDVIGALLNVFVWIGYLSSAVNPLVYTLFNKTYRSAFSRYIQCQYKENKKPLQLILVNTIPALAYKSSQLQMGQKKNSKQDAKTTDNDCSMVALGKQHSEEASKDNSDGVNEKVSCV

[2] = Half life in human liver microsomes at 1 uM measured for 5 to 60 mins under shaking condition in presence of NADPH by LCMS analysis; format: ADME, Microsome
[3] = biological target: Serotonin transporter (SERT); experiment: biochemical
[4] = biological target: 5-hydroxytryptamine receptor 6 (Homo sapiens, UniProt P50406); experiment: biochemical
Chain of 5-hydroxytryptamine receptor 6 (P50406 whole entry): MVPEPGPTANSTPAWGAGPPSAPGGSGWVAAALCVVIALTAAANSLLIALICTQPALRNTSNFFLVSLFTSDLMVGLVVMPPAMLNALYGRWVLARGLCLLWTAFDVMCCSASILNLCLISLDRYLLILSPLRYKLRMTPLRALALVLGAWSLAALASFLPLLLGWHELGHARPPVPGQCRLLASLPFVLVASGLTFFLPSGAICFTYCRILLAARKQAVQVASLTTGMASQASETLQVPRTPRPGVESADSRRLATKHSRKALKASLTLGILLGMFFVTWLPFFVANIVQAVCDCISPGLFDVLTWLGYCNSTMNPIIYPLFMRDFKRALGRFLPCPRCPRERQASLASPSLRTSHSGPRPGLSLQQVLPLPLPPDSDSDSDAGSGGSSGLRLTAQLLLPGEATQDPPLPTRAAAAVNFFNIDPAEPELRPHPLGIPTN
Description: Displacement of [3H]LSD from human 5-HT6 receptor expressed in HEK cells incubated for 1 hr by Cheng-Prusoff analysis based microbeta scintillation counting method

[5] = biological target: 5-hydroxytryptamine receptor 7 (Homo sapiens, UniProt P34969); experiment: biochemical
Chain of 5-hydroxytryptamine receptor 7 (P34969 whole entry): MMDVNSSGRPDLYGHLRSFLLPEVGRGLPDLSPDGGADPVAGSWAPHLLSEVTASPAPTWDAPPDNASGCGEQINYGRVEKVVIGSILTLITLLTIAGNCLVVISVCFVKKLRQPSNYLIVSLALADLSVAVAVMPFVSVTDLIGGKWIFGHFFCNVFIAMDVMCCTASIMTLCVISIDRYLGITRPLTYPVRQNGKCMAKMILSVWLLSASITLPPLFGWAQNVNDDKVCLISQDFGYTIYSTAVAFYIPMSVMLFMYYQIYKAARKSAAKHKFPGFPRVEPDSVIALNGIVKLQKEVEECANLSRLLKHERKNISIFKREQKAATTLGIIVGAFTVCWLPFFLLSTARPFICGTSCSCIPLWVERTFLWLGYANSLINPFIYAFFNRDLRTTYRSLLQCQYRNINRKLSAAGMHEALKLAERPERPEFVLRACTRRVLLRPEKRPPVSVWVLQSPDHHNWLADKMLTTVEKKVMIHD
Description: Displacement of [3H]-5-CT from human 5HT7 receptor expressed in HEK cells incubated for 1 hr by Cheng-Prusoff analysis based microbeta scintillation counting method

[6] = biological target: D(2) dopamine receptor (Homo sapiens, UniProt P14416); experiment: biochemical
Chain of D(2) dopamine receptor (P14416 whole entry): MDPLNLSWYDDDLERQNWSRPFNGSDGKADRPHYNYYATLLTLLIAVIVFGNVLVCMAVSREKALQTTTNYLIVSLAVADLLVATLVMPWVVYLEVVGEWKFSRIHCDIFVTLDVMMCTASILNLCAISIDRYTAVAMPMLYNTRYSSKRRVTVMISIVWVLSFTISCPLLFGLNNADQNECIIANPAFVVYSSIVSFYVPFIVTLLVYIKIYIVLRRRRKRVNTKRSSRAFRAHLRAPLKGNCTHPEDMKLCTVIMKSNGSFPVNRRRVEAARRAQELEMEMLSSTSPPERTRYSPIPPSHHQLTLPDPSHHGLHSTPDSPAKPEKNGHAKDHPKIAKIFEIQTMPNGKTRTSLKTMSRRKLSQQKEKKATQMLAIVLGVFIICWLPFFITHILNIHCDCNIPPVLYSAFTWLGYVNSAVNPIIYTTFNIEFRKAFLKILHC
Description: Displacement of [3H]-raclopride from human D2 receptor expressed in HEK cells incubated for 1 hr by Cheng-Prusoff analysis based microbeta scintillation counting method

[7] = tested on: Mus musculus; experiment: Induction of hypothermia in CD-1 mouse assessed as change in body temperature at 5 mg/kg, ip treated for 30 mins and measured after 30 mins by thermometric method; format: functional, organism-based
[8] = tested on: Mus musculus; experiment: Induction of hypothermia in CD-1 mouse assessed as change in body temperature at 5 mg/kg, ip treated for 60 mins and measured after 30 mins by thermometric method; format: functional, organism-based
[9] = tested on: Mus musculus; experiment: Induction of hypothermia in CD-1 mouse assessed as change in body temperature at 5 mg/kg, ip treated for 90 mins and measured after 30 mins by thermometric method; format: functional, organism-based
[10] = tested on: Mus musculus; experiment: Induction of hypothermia in CD-1 mouse assessed as change in body temperature at 5 mg/kg, ip treated for 120 mins and measured after 30 mins by thermometric method; format: functional, organism-based
[11] = tested on: Mus musculus; experiment: Induction of hypothermia in CD-1 mouse assessed as change in body temperature at 20 mg/kg, ip treated for 30 mins and measured after 30 mins by thermometric method; format: functional, organism-based
[12] = tested on: Mus musculus; experiment: Induction of hypothermia in CD-1 mouse assessed as change in body temperature at 20 mg/kg, ip treated for 60 mins and measured after 30 mins by thermometric method; format: functional, organism-based
[13] = tested on: Mus musculus; experiment: Induction of hypothermia in CD-1 mouse assessed as change in body temperature at 20 mg/kg, ip treated for 90 mins and measured after 30 mins by thermometric method; format: functional, organism-based
[14] = tested on: Mus musculus; experiment: Induction of hypothermia in CD-1 mouse assessed as change in body temperature at 20 mg/kg, ip treated for 120 mins and measured after 30 mins by thermometric method; format: functional, organism-based
[15] = tested on: Mus musculus; experiment: Inhibition of 8-OH-DPAT-induced hypothermia in CD-1 mouse assessed change in body temperature at 20 mg/kg, ip pretreated for 45 mins followed by 8-OH-DPAT addition and measured after 15 mins by thermometric method; format: functional, organism-based
[16] = tested on: Mus musculus; experiment: Inhibition of 8-OH-DPAT-induced hypothermia in CD-1 mouse assessed change in body temperature at 20 mg/kg, ip pretreated for 45 mins followed by 8-OH-DPAT addition and measured after 30 mins by thermometric method; format: functional, organism-based
[17] = tested on: Mus musculus; experiment: Inhibition of 8-OH-DPAT-induced hypothermia in CD-1 mouse assessed change in body temperature at 20 mg/kg, ip pretreated for 45 mins followed by 8-OH-DPAT addition and measured after 45 mins by thermometric method; format: functional, organism-based
[18] = tested on: Mus musculus; experiment: Inhibition of 8-OH-DPAT-induced hypothermia in CD-1 mouse assessed change in body temperature at 20 mg/kg, ip pretreated for 45 mins followed by 8-OH-DPAT addition and measured after 60 mins by thermometric method; format: functional, organism-based
[19] = species on record: Mus musculus; experiment: Effect on forepaw treading in CD-1 mouse up to 30 mins in presence of 8-OH-DPAT; format: functional, organism-based
[20] = species on record: Mus musculus; experiment: Effect on forepaw treading in CD-1 mouse; format: ADME, organism-based; details: in vivo
[21] = tested on: Mus musculus; experiment: Psychoactive effect in CD-1 mouse assessed as effect on immobility time at 5 to 20 mg/kg, ip pretreated for 30 mins and measured after 6 mins by force swim test; format: ADME, organism-based; details: in vivo, 0.1 h
[22] = species on record: Mus musculus; experiment: Effect on forepaw treading in CD-1 mouse in presence of 8-OH-DPAT; format: functional, organism-based

SMILES: COc1ccc(-c2c3n(c(=O)n(CCCCN4CCCC(c5c[nH]c6ccc(OC)cc56)C4)c2=O)CCCC3)cc1 (centres undefined)
Ki [1]: 1190 nM | half-life at 1 µM [2]: 7 min | Ki [3]: 52 nM | Ki [4]: 452 nM | Ki [5]: 546 nM | Ki [6]: 1800 nM

SMILES: COc1ccc2[nH]cc(C3CCCN(CCCCn4c(=O)c(-c5ccccc5C)c5n(c4=O)CCCC5)C3)c2c1 (centres undefined)
Ki [3]: 66 nM

SMILES: COc1ccc2[nH]cc(C3CCCN(CCCCn4c(=O)c(-c5ccccc5OC)c5n(c4=O)CCCC5)C3)c2c1 (centres undefined)
Ki [3]: 239 nM

SMILES: O=c1c(-c2ccc(F)cc2)c2n(c(=O)n1CCCCN1CCCC(c3c[nH]c4ccc(F)cc34)C1)CCCC2 (centres undefined)
Ki [1]: 484 nM | deltaT [7]: 0.8 °C | deltaT [8]: 0.8 °C | deltaT [9]: 0.6 °C | deltaT [10]: 0.9 °C | deltaT [11]: -0.6 °C | deltaT [12]: 0.1 °C | deltaT [13]: 0.1 °C | deltaT [14]: 0 °C | deltaT [15]: -0.1 °C | deltaT [16]: 0.2 °C | deltaT [17]: -0.3 °C | deltaT [18]: -0.4 °C | half-life at 1 µM [2]: 6.2 min | Activity [19]: Active | Activity [20]: Non-Toxic | Ki [3]: 31 nM | Ki [4]: 728 nM | Ki [5]: 1110 nM | Ki [6]: 1050 nM

SMILES: Cc1ccc(-c2c3n(c(=O)n(CCCCN4CCCC(c5c[nH]c6ccc(F)cc56)C4)c2=O)CCCC3)cc1 (centres undefined)
Ki [3]: 233 nM

SMILES: COc1ccc2[nH]cc(C3CCCN(CCCCn4c(=O)c(-c5ccccc5Cl)c5n(c4=O)CCCC5)C3)c2c1 (centres undefined)
Ki [3]: 50 nM

SMILES: COc1ccc2[nH]cc(C3CCCN(CCCCn4c(=O)c(-c5ccccc5F)c5n(c4=O)CCCC5)C3)c2c1 (centres undefined)
Ki [3]: 236 nM

SMILES: COc1ccc2[nH]cc(C3CCCN(CCCCn4c(=O)c(-c5ccc(C)cc5)c5n(c4=O)CCCC5)C3)c2c1 (centres undefined)
Ki [3]: 321 nM

SMILES: COc1ccc2[nH]cc(C3CCCN(CCCCn4c(=O)c(-c5ccc(F)cc5)c5n(c4=O)CCCC5)C3)c2c1 (centres undefined)
Ki [3]: 76 nM

SMILES: COc1ccc2[nH]cc(C3CCCN(CCCCn4c(=O)c(-c5ccc(Cl)cc5)c5n(c4=O)CCCC5)C3)c2c1 (centres undefined)
Ki [3]: 23 nM

SMILES: COc1ccccc1-c1c2n(c(=O)n(CCCCN3CCCC(c4c[nH]c5ccc(F)cc45)C3)c1=O)CCCC2 (centres undefined)
Ki [3]: 40 nM

SMILES: O=C1CC2(CCCC2)CC(=O)N1CCCCN1CCN(c2ncccn2)CC1 [BUSPIRONE]
half-life at 1 µM [2]: 6.6 min

SMILES: COc1ccc(-c2c3n(c(=O)n(CCCCN4CCCC(c5c[nH]c6ccc(F)cc56)C4)c2=O)CCCC3)cc1 (centres undefined)
Ki [3]: 42 nM

The next lines start with results.

Ki [3]: 50 nM
SMILES: Cc1ccc(-c2c3n(c(=O)n(CCCCN4CCCC(c5c[nH]c6ccccc56)C4)c2=O)CCCC3)cc1 (centres undefined)

Ki [3]: 105 nM
SMILES: O=c1c(-c2ccccc2)c2n(c(=O)n1CCCCN1CCCC(c3c[nH]c4ccc(F)cc34)C1)CCCC2 (centres undefined)

Ki [1]: 1490 nM | Ki [3]: 30 nM | Ki [4]: 1320 nM | Ki [5]: 1380 nM | Ki [6]: 1650 nM
SMILES: O=c1c(-c2ccc(Cl)cc2)c2n(c(=O)n1CCCCN1CCCC(c3c[nH]c4ccccc34)C1)CCCC2 (centres undefined)
deltaT [7]: 0.1 °C | deltaT [8]: 0.3 °C | deltaT [9]: -0.1 °C | deltaT [10]: 0.2 °C | deltaT [11]: 0.3 °C | deltaT [12]: 0.7 °C | deltaT [13]: 0.5 °C | deltaT [14]: 0.3 °C | deltaT [15]: -1.1 °C | deltaT [16]: -1.1 °C | deltaT [17]: -1.2 °C | deltaT [18]: -1.2 °C

Ki [3]: 47 nM
SMILES: O=c1c(-c2ccccc2Cl)c2n(c(=O)n1CCCCN1CCCC(c3c[nH]c4ccc(F)cc34)C1)CCCC2 (centres undefined)

Ki [3]: 62 nM
SMILES: Cc1ccccc1-c1c2n(c(=O)n(CCCCN3CCCC(c4c[nH]c5ccccc45)C3)c1=O)CCCC2 (centres undefined)

Ki [1]: 325 nM | half-life at 1 µM [2]: 12 min | Ki [3]: 15 nM | Ki [4]: 1030 nM | Ki [5]: 2430 nM | Ki [6]: > 10000 nM
SMILES: O=c1c(-c2ccccc2F)c2n(c(=O)n1CCCCN1CCCC(c3c[nH]c4ccccc34)C1)CCCC2 (centres undefined)
deltaT [7]: 0.2 °C | deltaT [8]: 0.3 °C | deltaT [9]: 0.7 °C | deltaT [10]: 1 °C | deltaT [11]: -0.8 °C | deltaT [12]: 0 °C | deltaT [13]: 0.6 °C | deltaT [14]: 0.7 °C | deltaT [15]: -1.6 °C | deltaT [16]: -1.8 °C | deltaT [17]: -1.9 °C | deltaT [18]: -1.8 °C

Ki [1]: 609 nM | half-life at 1 µM [2]: 7 min | Ki [3]: 8 nM | Ki [4]: 1030 nM | Ki [5]: 1360 nM | Ki [6]: 896 nM
SMILES: O=c1c(-c2ccccc2Cl)c2n(c(=O)n1CCCCN1CCCC(c3c[nH]c4ccccc34)C1)CCCC2 (centres undefined)
deltaT [7]: 0 °C | deltaT [8]: 0.3 °C | deltaT [9]: 0.9 °C | deltaT [10]: 0.8 °C | deltaT [11]: -0.8 °C | deltaT [12]: 0.2 °C | deltaT [13]: 0.3 °C | deltaT [14]: 0.2 °C

Ki [3]: 52 nM
SMILES: COc1ccc(-c2c3n(c(=O)n(CCCCN4CCCC(c5c[nH]c6ccccc56)C4)c2=O)CCCC3)cc1 (centres undefined)

Ki [1]: 725 nM | half-life at 1 µM [2]: 11.1 min | Ki [3]: 27 nM | Ki [4]: 1150 nM | Ki [5]: 1090 nM | Ki [6]: 2350 nM
SMILES: O=c1c(-c2ccccc2)c2n(c(=O)n1CCCCN1CCCC(c3c[nH]c4ccccc34)C1)CCCC2 (centres undefined)
deltaT [7]: 0.2 °C | deltaT [8]: 0.3 °C | deltaT [9]: 0.3 °C | deltaT [10]: 0.8 °C | deltaT [11]: -0.6 °C | deltaT [12]: 0 °C | deltaT [13]: -0.2 °C | deltaT [14]: -0.1 °C | deltaT [15]: -1.2 °C | deltaT [16]: -1.1 °C | deltaT [17]: -0.9 °C | deltaT [18]: 0.7 °C

Ki [3]: 102 nM
SMILES: COc1ccc2[nH]cc(C3CCCN(CCCCn4c(=O)c(-c5ccccc5)c5n(c4=O)CCCC5)C3)c2c1 (centres undefined)

Ki [3]: 28 nM
SMILES: O=c1c(-c2ccccc2F)c2n(c(=O)n1CCCCN1CCCC(c3c[nH]c4ccc(F)cc34)C1)CCCC2 (centres undefined)

Ki [3]: 142 nM
SMILES: Cc1ccccc1-c1c2n(c(=O)n(CCCCN3CCCC(c4c[nH]c5ccc(F)cc45)C3)c1=O)CCCC2 (centres undefined)

Ki [1]: 1280 nM | half-life at 1 µM [2]: 7 min | Ki [3]: 13 nM | Ki [4]: 1650 nM | Ki [5]: 1710 nM | Ki [6]: 1980 nM
SMILES: O=c1c(-c2ccc(F)cc2)c2n(c(=O)n1CCCCN1CCCC(c3c[nH]c4ccccc34)C1)CCCC2 (centres undefined)
deltaT [7]: 0.3 °C | deltaT [8]: 0.3 °C | deltaT [9]: 0.3 °C | deltaT [10]: 0.5 °C | deltaT [11]: 0.1 °C | deltaT [12]: 0.3 °C | deltaT [13]: -0.1 °C | deltaT [14]: 0.1 °C | deltaT [15]: -0.2 °C | deltaT [16]: -0.2 °C | deltaT [17]: -0.3 °C | deltaT [18]: -0.9 °C | Activity [21]: Non-Toxic | Activity [22]: Active

Ki [3]: 25 nM
SMILES: COc1ccccc1-c1c2n(c(=O)n(CCCCN3CCCC(c4c[nH]c5ccccc45)C3)c1=O)CCCC2 (centres undefined)

Ki [3]: 259 nM
SMILES: O=c1c(-c2ccc(Cl)cc2)c2n(c(=O)n1CCCCN1CCCC(c3c[nH]c4ccc(F)cc34)C1)CCCC2 (centres undefined)
